Measurements reported in patent US20230321064A1, “Products for Treating the JNCL Disease” (Beyond Batten Disease Foundation, priority 2020, published 2023).
“Also recorded” adds a separate entry of the source.

Key:
Cln3^Δex7-8 mice [1] = assay: Microglial activation, CD68 immunohistochemistry in brain sections; format: in vivo, mouse; conditions: analyzed regions VPM/VPL, DLG, S1BF, V1 (FIG. 2A-D)
Protocol: (§1) Cln3^Δex7-8 mice were obtained from the Jackson Laboratory. Control (C57BL/6J) and Cln3^Δex7-8 mice were housed 3-4 per cage in a room with a 12-h light/12-h dark cycle. Food and water were provided ad libitum. All mice used in this study were analyzed at 8 and 12 months of age and were littermates produced by crossing heterozygous Cln3^Δex7-8 mice. Only males were used for this analysis. Investigators were blinded when analyzing the data, and no randomization was necessary.
(§2) For oral administration, Trehalose was dissolved in drinking water to a final concentration of 2% and changed twice a week. Trehalose-containing water was given to Cln3^Δex7-8 mice and WT mice by spontaneous oral administration starting at 21 days of age and continuing until the day the mice were sacrificed for neuropathology studies.
(§3) Miglustat was administered in mixture with the food pellet starting at 21 days of age and continuing until the day the mice were sacrificed for neuropathology studies. Miglustat food was prepared by TestDiet using the 5V5R rodent diet (LabDiet). Two concentrations were used: 1.2 g/Kg chow (indicated as “low concentration”) and 7.2 g/Kg chow (indicated as “high concentration”) and two separate groups of Cln3^Δex7-8 mice were fed with either diet. One additional group of Cln3^Δex7-8 l mice was fed with a combination of the low-concentration Miglustat food and 2% Trehalose water.
(§4) Twelve-month-old homozygous Cln3^Δex7-8 mice and age-matched controls (WT mice) were anaesthetized with isoflurane and transcardially perfused with PBS followed by 4% buffered paraformaldehyde in 0.1 M sodium phosphate buffer, pH 7.4. Brains were subsequently removed and postfixed overnight. Before sectioning, the brains were cryoprotected in a solution containing 30% sucrose in Tris-buffered saline (TBS: 50 mM Tris, pH 7.6). Consecutive 40 μm floating coronal sections were collected in 96-well plates. Series of sections were then stained with primary antisera against CD68 (AbD
(§5) Serotec, Cat. No. MCA1957), GFAP (DAKO, Cat. No. Z0334), Subunit C of mitochondrial ATP synthase (SCMAS; Abcam, Cat. No. ab181243), or cleaved caspase 3 (Asp175) (Cell Signaling, Cat. No. 9661S) followed by either rabbit anti-rat (VectorLab) or swine anti-rabbit (DAKO) secondary antibodies, and immunoreactivity detected with Vectastain ABC (avidin-biotin) kit (Vector) and diaminobenzidine as a chromogen.
Non-overlapping images were captured, on three consecutive sections, through each region of interest. All RGB images were captured via a live video camera (JVC, 3CCD, KY-F55B), mounted onto a Zeiss Axioplan microscope using a x 40 objective and saved as JPEGs. All parameters including lamp intensity, video camera set-up and calibration were maintained constant throughout image capturing. For quantification of storage and inflammation, images were analyzed using ImageJ analysis software (NIH), using an appropriate threshold that selected the foreground immunoreactivity above background. This threshold was then applied as a constant to all subsequent images analyzed per batch of animals and reagent used to determine the specific area of immunoreactivity for each antigen in each region. […] For quantification of cell death, images were analyzed manually and scored for the presence of apoptotic nuclei. […]
(S1BF), the primary visual (V1) cortex, and the dorsolateral geniculate (DLG) (Pontikis et al., 2005). To quantify microglial activation, antibodies against the microglial marker CD68 were used. […]

[2] = Tissue concentrations of Trehalose (liver, brain) by LC-MS/MS; format: in vivo, mouse
Protocol: LC-MS/MS bioanalytical methodologies were developed for the analysis of Trehalose, Miglustat and glucose in mouse whole blood and brain.
Tissue samples were homogenized in 8 volumes of sterile distilled water and 1 volume of TCA (20% in water) to generate a final concentration of 2% TCA, homogenates were centrifuged at 13000 rpm for 15 min at 4° C. and the supernatant transferred to a fresh plate. At the time of analysis, 1 volume of acetonitrile containing an internal standard was added in order to match the initial chromatography conditions, samples were centrifuged at 4350 rpm for 10 min at ambient temperature, and the resultant supernatant transferred for analysis on the LC-MS/MS.
The purpose of this example was to compare the blood PK of unlabelled high doses of Trehalose after IV and PO administration, with and without Miglustat PO dosing. For the IV comparison, Trehalose was dosed as an IV bolus dose 15 min after PO dosing of Miglustat. For the PO comparison Miglustat was dosed simultaneously with Trehalose. Fasted male C57BL6/N mice were dosed as detailed in Table III: […]

Cln3^Δex7-8 mice [3] = assay: Neuronal cell death, cleaved caspase-3 immunohistology in brain sections; format: in vivo, mouse
Protocol: as §1, §2, §3, §4, §5
Non-overlapping images were captured, on three consecutive sections, through each region of interest. All RGB images were captured via a live video camera (JVC, 3CCD, KY-F55B), mounted onto a Zeiss Axioplan microscope using a x 40 objective and saved as JPEGs. All parameters including lamp intensity, video camera set-up and calibration were maintained constant throughout image capturing. For quantification of storage and inflammation, images were analyzed using ImageJ analysis software (NIH), using an appropriate threshold that selected the foreground immunoreactivity above background. This threshold was then applied as a constant to all subsequent images analyzed per batch of animals and reagent used to determine the specific area of immunoreactivity for each antigen in each region. Data were plotted graphically as the mean percentage area of immunoreactivity per field ±s.e.m. for each region. For quantification of cell death, images were analyzed manually and scored for the presence of apoptotic nuclei. Data were plotted graphically as the mean number of apoptotic cells per field ±s.e.m. for each region. […]

[4] = at 20° C.; cited from earlier work
Cln3^Δex7-8 mice [5] = assay: Astrocytosis, GFAP immunohistochemistry in brain sections; format: in vivo, mouse
Protocol: as §1, §2, §3, §4, §5
Non-overlapping images were captured, on three consecutive sections, through each region of interest. All RGB images were captured via a live video camera (JVC, 3CCD, KY-F55B), mounted onto a Zeiss Axioplan microscope using a x 40 objective and saved as JPEGs. All parameters including lamp intensity, video camera set-up and calibration were maintained constant throughout image capturing. For quantification of storage and inflammation, images were analyzed using ImageJ analysis software (NIH), using an appropriate threshold that selected the foreground immunoreactivity above background. This threshold was then applied as a constant to all subsequent images analyzed per batch of animals and reagent used to determine the specific area of immunoreactivity for each antigen in each region. Data were plotted graphically as the mean percentage area of immunoreactivity per field ±s.e.m. for each region. For quantification of cell death, images were analyzed manually and scored for the presence of apoptotic nuclei. Data were plotted graphically as the mean number of apoptotic cells per field ±s.e.m. for each region. All analyses were performed blind to genotype and treatment.
[…] was also quantified by performing immunohistochemistry staining of brain sections of all test and control mice using anti-GFAP antibodies.

Cln3^Δex7-8 mice [6] = assay: Lysosomal storage in cerebellum (SCMAS staining); format: in vivo, mouse; conditions: 12 months of age
Protocol: as §1
For oral administration, Trehalose was dissolved in drinking water to a final concentration of 2% and changed twice a week. […]
as §5
Non-overlapping images were captured, on three consecutive sections, through each region of interest. […] For quantification of storage and inflammation, images were analyzed using ImageJ analysis software (NIH), using an appropriate threshold that selected the foreground immunoreactivity above background. […]

[7] = 1 g/kg trehalose IV + 150 mg/kg miglustat PO, 180 min post-dose
[8] = 1 g/kg trehalose IV, 180 min post-dose

Compound: OC[C@H]1O[C@H](O[C@H]2O[C@H](CO)[C@@H](O)[C@H](O)[C@H]2O)[C@H](O)[C@@H](O)[C@@H]1O [Trehalose, α-D-glucopyranosyl α-D-glucopyranoside dihydrate]
- microglial activation (CD68) (Cln3^Δex7-8 mice [1]): partially mitigated
- Concentration of Trehalose, Brain L [2, 7]: 10.8 ± 2.0 nmol/g
- Concentration of Trehalose, Brain R [2, 7]: 10.5 ± 1.7 nmol/g
- Concentration of Trehalose, Liver [2, 7]: 278.6 ± 96.6 nmol/g
- Concentration of Trehalose, Brain L [2, 8]: 6.9 ± 1.9 nmol/g
- Concentration of Trehalose, Brain R [2, 8]: 7.3 ± 0.9 nmol/g
- Concentration of Trehalose, Liver [2, 8]: 167.9 ± 24.6 nmol/g
- brain exposure of Trehalose ([2]; IV Trehalose in combination with oral Miglustat, 180 min post-dose): about 10 nmol/g
- brain exposure of Trehalose ([2]; IV Trehalose, 180 min post-dose): about 7 nmol/g
- brain exposure of Trehalose ([2]; PO Trehalose): 2.5 nmol/g
- cell death (cleaved CAS-3) in the VPM/VPL region (Cln3^Δex7-8 mice [3]; 12 months of age, oral, 2% Trehalose in drinking water, Miglustat in chow (FIG. 1E), dihydrate): partially prevented; also recorded: partially reduced
- programmed cell death (cleaved caspase-3 reactive cells) (Cln3^Δex7-8 mice [3]; regions analyzed: VPM/VPL, dLG, S1BF, V1 (FIGS. 1A-D), oral treatment): effective in abating programmed cell death
- Solubility [4]: Trehalose: 68.9 g/100 g H2O at 20 °C
- astroglial activation (GFAP staining) in the VPM/VPL region (Cln3^Δex7-8 mice [5]; 12 months of age, oral, Miglustat even at low doses (FIG. 3E)): partially prevented
- astrocytosis (GFAP immunoreactivity) in the VPM/VPL (Cln3^Δex7-8 mice [5]; FIG. 3A): did not have any observable effects
- astrocytosis (GFAP immunoreactivity) in the DLG (Cln3^Δex7-8 mice [5]; FIG. 3B): prevented astrocytosis
- increased storage in the cerebellum (SCMAS staining) (Cln3^Δex7-8 mice [6]): partially reduces this increased storage
